Measurements: US6358885B1, “Substituted phenylheterocyclic herbicides” (Mississippi State University, priority 1992, dated 2002)

Key:
Assay in all cases: Test B preemergence/postemergence greenhouse plant response rating 0 to 10
cocklebur = type: in vivo, Xanthium pensylvanicum; details: for Plant response rating, Cocklebur: 0 to 10 scale
Outline: (§1)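 Test chemicals, dissolved in a non-phytotoxic solvent, were applied to soil at planting and, at the same time, over foliage of seedlings at the one to four leaf stage.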

wheat = type: in vivo, Triticum aestivum; details: for Plant response rating, Wheat: 0 to 10 scale
Outline: as §1

chickweed = type: in vivo, Stellaria media; details: for Plant response rating, Chickweed: 0 to 10 scale
Outline: as §1

cotton = type: in vivo, Gossypium hirsutum; details: for Plant response rating, Cotton: 0 to 10 scale
Outline: as §1

barley = type: in vivo, Hordeum vulgare; details: for Plant response rating, Barley: 0 to 10 scale
Outline: as §1

sugar beet = type: in vivo, Beta vulgaris; details: for Plant response rating, Sugar beet: 0 to 10 scale
Outline: as §1

sorghum = type: in vivo, Sorghum bicolor; details: for Plant response rating, Sorghum: 0 to 10 scale
Outline: as §1

wild oat = type: in vivo, Avena fatua; details: for Plant response rating, Wild oat: 0 to 10 scale
Outline: as §1

giant foxtail = type: in vivo, Setaria faberii; details: for Plant response rating, Giant foxtail: 0 to 10 scale
Outline: as §1

morningglory = type: in vivo, Ipomoea hederacea; details: for Plant response rating, Morningglory: 0 to 10 scale
Outline: as §1

corn = type: in vivo, Zea mays; details: for Plant response rating, Corn: 0 to 10 scale
Outline: as §1

rape = type: in vivo, Brassica napus; details: for Plant response rating, Rape: 0 to 10 scale
Outline: as §1

lambsquarters = type: in vivo, Chenopodium album; details: for Plant response rating, Lambsquarter: 0 to 10 scale
Outline: as §1

rice = type: in vivo, Oryza sativa; details: for Plant response rating, Rice: 0 to 10 scale
Outline: as §1

barnyardgrass = type: in vivo, Echinochloa crus-galli; details: for Plant response rating, Barnyardgrass: 0 to 10 scale
Outline: as §1

soybean = type: in vivo, Glycine max; details: for Plant response rating, Soybean: 0 to 10 scale
Outline: as §1

velvetleaf = type: in vivo, Abutilon theophrasti; details: for Plant response rating, Velvetleaf: 0 to 10 scale
Outline: as §1

purple nutsedge = type: in vivo, Cyperus rotundus; details: for Plant response rating, Nutsedge: 0 to 10 scale
Outline: as §1

crabgrass = type: in vivo, Digitaria spp.; details: for Plant response rating, Crabgrass: 0 to 10 scale
Outline: as §1

cheatgrass = type: in vivo, Bromus secalinus; details: for Plant response rating, Cheatgrass: 0 to 10 scale
Outline: as §1

bedstraw = type: in vivo, Galium aparine; details: for Plant response rating, Bedstraw: 0 to 10 scale
Outline: as §1

blackgrass = type: in vivo, Alopecurus myosuroides; details: for Plant response rating, Blackgrass: 0 to 10 scale
Outline: as §1

wild buckwheat = type: in vivo, Polygonum convolvulus; details: for Plant response rating, Wild buckwheat: 0 to 10 scale
Outline: as §1

C#CC(C)Oc1cc(-c2nn3c(c2Cl)CCCC3)c(Cl)cc1Cl (centres unmarked) [Compound 74]
2: Plant response rating, Barley (barley; POSTEMERGENCE, Rate 50 g/ha) | Plant response rating, Giant foxtail (giant foxtail; PREEMERGENCE, Rate 50 g/ha) | Plant response rating, Corn (corn; POSTEMERGENCE, Rate 50 g/ha) | Plant response rating, Nutsedge (purple nutsedge; POSTEMERGENCE, Rate 50 g/ha) | Plant response rating, Nutsedge (purple nutsedge; Rate 200 g/ha, POSTEMERGENCE) | Plant response rating, Crabgrass (crabgrass; PREEMERGENCE, Rate 50 g/ha)
5: Plant response rating, Wheat (wheat; Rate 200 g/ha, POSTEMERGENCE) | Plant response rating (0 to 10 scale), Chickweed (chickweed; PREEMERGENCE, Rate 200 g/ha) | Plant response rating, Sorghum (sorghum; POSTEMERGENCE, Rate 50 g/ha) | Plant response rating, Giant foxtail (giant foxtail; POSTEMERGENCE, Rate 50 g/ha) | Plant response rating, Giant foxtail (giant foxtail; Rate 200 g/ha, POSTEMERGENCE) | Plant response rating, Barnyardgrass (barnyardgrass; POSTEMERGENCE, Rate 50 g/ha) | Plant response rating, Velvetleaf (velvetleaf; PREEMERGENCE, Rate 50 g/ha) | Plant response rating, Crabgrass (crabgrass; Rate 200 g/ha, POSTEMERGENCE) | Plant response rating, Wild buckwheat (wild buckwheat; PREEMERGENCE, Rate 50 g/ha)
6: Plant response rating, Chickweed (chickweed; POSTEMERGENCE, Rate 50 g/ha) | Plant response rating (0 to 10 scale), Giant foxtail (giant foxtail; PREEMERGENCE, Rate 200 g/ha) | Plant response rating, Rice (rice; Rate 200 g/ha, POSTEMERGENCE) | Plant response rating, Soybean (soybean; POSTEMERGENCE, Rate 50 g/ha) | Plant response rating, Soybean (soybean; Rate 200 g/ha, POSTEMERGENCE) | Plant response rating (0 to 10 scale), Crabgrass (crabgrass; PREEMERGENCE, Rate 200 g/ha) | Plant response rating, Cheatgrass (cheatgrass; POSTEMERGENCE, Rate 50 g/ha) | Plant response rating, Cheatgrass (cheatgrass; Rate 200 g/ha, POSTEMERGENCE) | Plant response rating, Blackgrass (blackgrass; POSTEMERGENCE, Rate 50 g/ha) | Plant response rating, Blackgrass (blackgrass; Rate 200 g/ha, POSTEMERGENCE)
9: Plant response rating, Cocklebur (cocklebur; POSTEMERGENCE, Rate 50 g/ha) | Plant response rating, Morningglory (morningglory; POSTEMERGENCE, Rate 50 g/ha) | Plant response rating, Morningglory (morningglory; Rate 200 g/ha, POSTEMERGENCE) | Plant response rating, Lambsquarter (lambsquarters; POSTEMERGENCE, Rate 50 g/ha) | Plant response rating, Lambsquarter (lambsquarters; PREEMERGENCE, Rate 50 g/ha) | Plant response rating (0 to 10 scale), Velvetleaf (velvetleaf; PREEMERGENCE, Rate 200 g/ha) | Plant response rating (0 to 10 scale), Bedstraw (bedstraw; PREEMERGENCE, Rate 200 g/ha) | Plant response rating, Bedstraw (bedstraw; Rate 200 g/ha, POSTEMERGENCE) | Plant response rating (0 to 10 scale), Wild buckwheat (wild buckwheat; PREEMERGENCE, Rate 200 g/ha)
1: Plant response rating (0 to 10 scale), Barnyardgrass (barnyardgrass; PREEMERGENCE, Rate 200 g/ha)
3: Plant response rating (0 to 10 scale), Wild oat (wild oat; PREEMERGENCE, Rate 200 g/ha) | Plant response rating, Rice (rice; POSTEMERGENCE, Rate 50 g/ha) | Plant response rating, Crabgrass (crabgrass; POSTEMERGENCE, Rate 50 g/ha)
8: Plant response rating, Bedstraw (bedstraw; POSTEMERGENCE, Rate 50 g/ha) | Plant response rating (0 to 10 scale), Blackgrass (blackgrass; PREEMERGENCE, Rate 200 g/ha)
0: Plant response rating, Cocklebur (cocklebur; PREEMERGENCE, Rate 50 g/ha) | Plant response rating (0 to 10 scale), Cocklebur (cocklebur; PREEMERGENCE, Rate 200 g/ha) | Plant response rating, Wheat (wheat; PREEMERGENCE, Rate 50 g/ha) | Plant response rating (0 to 10 scale), Wheat (wheat; PREEMERGENCE, Rate 200 g/ha) | Plant response rating, Chickweed (chickweed; PREEMERGENCE, Rate 50 g/ha) | Plant response rating, Cotton (cotton; PREEMERGENCE, Rate 50 g/ha) | Plant response rating (0 to 10 scale), Cotton (cotton; PREEMERGENCE, Rate 200 g/ha) | Plant response rating, Barley (barley; PREEMERGENCE, Rate 50 g/ha) | Plant response rating (0 to 10 scale), Barley (barley; PREEMERGENCE, Rate 200 g/ha) | Plant response rating, Sugar beet (sugar beet; PREEMERGENCE, Rate 50 g/ha) | Plant response rating, Sorghum (sorghum; PREEMERGENCE, Rate 50 g/ha) | Plant response rating (0 to 10 scale), Sorghum (sorghum; PREEMERGENCE, Rate 200 g/ha) | Plant response rating, Wild oat (wild oat; PREEMERGENCE, Rate 50 g/ha) | Plant response rating, Morningglory (morningglory; PREEMERGENCE, Rate 50 g/ha) | Plant response rating (0 to 10 scale), Morningglory (morningglory; PREEMERGENCE, Rate 200 g/ha) | Plant response rating, Corn (corn; PREEMERGENCE, Rate 50 g/ha) | Plant response rating (0 to 10 scale), Corn (corn; PREEMERGENCE, Rate 200 g/ha) | Plant response rating, Rape (rape; PREEMERGENCE, Rate 50 g/ha) | Plant response rating, Rice (rice; PREEMERGENCE, Rate 50 g/ha) | Plant response rating (0 to 10 scale), Rice (rice; PREEMERGENCE, Rate 200 g/ha) | Plant response rating, Barnyardgrass (barnyardgrass; PREEMERGENCE, Rate 50 g/ha) | Plant response rating, Soybean (soybean; PREEMERGENCE, Rate 50 g/ha) | Plant response rating (0 to 10 scale), Soybean (soybean; PREEMERGENCE, Rate 200 g/ha) | Plant response rating, Nutsedge (purple nutsedge; PREEMERGENCE, Rate 50 g/ha) | Plant response rating (0 to 10 scale), Nutsedge (purple nutsedge; PREEMERGENCE, Rate 200 g/ha) | Plant response rating, Bedstraw (bedstraw; PREEMERGENCE, Rate 50 g/ha) | Plant response rating, Blackgrass (blackgrass; PREEMERGENCE, Rate 50 g/ha)
7: Plant response rating, Chickweed (chickweed; Rate 200 g/ha, POSTEMERGENCE) | Plant response rating, Sorghum (sorghum; Rate 200 g/ha, POSTEMERGENCE) | Plant response rating (0 to 10 scale), Rape (rape; PREEMERGENCE, Rate 200 g/ha) | Plant response rating, Barnyardgrass (barnyardgrass; Rate 200 g/ha, POSTEMERGENCE)
10: Plant response rating, Cocklebur (cocklebur; Rate 200 g/ha, POSTEMERGENCE) | Plant response rating, Cotton (cotton; POSTEMERGENCE, Rate 50 g/ha) | Plant response rating, Cotton (cotton; Rate 200 g/ha, POSTEMERGENCE) | Plant response rating, Sugar beet (sugar beet; POSTEMERGENCE, Rate 50 g/ha) | Plant response rating (0 to 10 scale), Sugar beet (sugar beet; PREEMERGENCE, Rate 200 g/ha) | Plant response rating, Sugar beet (sugar beet; Rate 200 g/ha, POSTEMERGENCE) | Plant response rating, Rape (rape; POSTEMERGENCE, Rate 50 g/ha) | Plant response rating, Rape (rape; Rate 200 g/ha, POSTEMERGENCE) | Plant response rating (0 to 10 scale), Lambsquarter (lambsquarters; PREEMERGENCE, Rate 200 g/ha) | Plant response rating, Lambsquarter (lambsquarters; Rate 200 g/ha, POSTEMERGENCE) | Plant response rating, Velvetleaf (velvetleaf; POSTEMERGENCE, Rate 50 g/ha) | Plant response rating, Velvetleaf (velvetleaf; Rate 200 g/ha, POSTEMERGENCE) | Plant response rating, Wild buckwheat (wild buckwheat; POSTEMERGENCE, Rate 50 g/ha) | Plant response rating, Wild buckwheat (wild buckwheat; Rate 200 g/ha, POSTEMERGENCE)
4: Plant response rating, Wheat (wheat; POSTEMERGENCE, Rate 50 g/ha) | Plant response rating, Barley (barley; Rate 200 g/ha, POSTEMERGENCE) | Plant response rating, Wild oat (wild oat; POSTEMERGENCE, Rate 50 g/ha) | Plant response rating, Wild oat (wild oat; Rate 200 g/ha, POSTEMERGENCE) | Plant response rating, Corn (corn; Rate 200 g/ha, POSTEMERGENCE) | Plant response rating, Cheatgrass (cheatgrass; PREEMERGENCE, Rate 50 g/ha) | Plant response rating (0 to 10 scale), Cheatgrass (cheatgrass; PREEMERGENCE, Rate 200 g/ha)
